Assay results published in EPA's ToxValDB 9.5 (doi:10.2903/j.efsa.2008.144r).
Values after ≈ are worked out from the molar mass of the structure shown.

Assays:
[1] = system: Lepomis macrochirus; details: acute; duration: 96 hours; mortality
[2] = system: Bibionidae; details: chronic/long-term; duration: 20 days
[3] = system: Apis mellifera; details: acute; duration: 48 hours; oral; unspecified; mortality
[4] = system: Daphnia magna; details: acute; duration: 48 hours; reproduction
[5] = system: Colinus virginianus
[6] = system: Zea sp.; details: not reported; other
[7] = system: Oncorhynchus mykiss; details: chronic/long-term; duration: 94 days
[8] = system: Pleurozium sp.; details: acute; duration: 72 hours; biomass
[9] = system: Rattus norvegicus
[10] = system: Oryctolagus sp.; details: developmental; development
[11] = system: Tagia sp.
[12] = system: Aphidius rhopalosiphi; experiment: LR50; higher = less toxic; details: not reported; mortality

With CC(Cc1ccc(C(C)(C)C)cc1)CN1C[C@@H](C)O[C@@H](C)C1 (stereo partly drawn) [(2R,6S)-Fenpropimorph] the LC50 [1] was 2.3 µg/mL (≈ 7.58 µM), the NOEC [2] was 0.13 mg/L and the LD50 [3] was greater than 95.6 µg/piece. It also gave an NOEC [4] of 0.024 mg/L, an LD50 ([5]; acute, oral, mortality) greater than 2000 mg/kg and an NOEC ([5]; reproduction developmental) greater than 30.3 mg/kg-day. It also gave an LEL [6] of 1690 g/ha, an NOEC [7] of 0.00016 mg/L and an NOEC [8] of 0.005 mg/L. It also gave an LD50 ([9]; acute, oral, mortality) of 2230 mg/kg, an NOAEL ([9]; chronic, duration: 2 years, organ weight) of 0.3 mg/kg-day and an NOAEC ([9]; reproduction developmental, duration: 24 months, reproduction) of 16 mg/kg-day. The NOAEL ([9]; subchronic, duration: 90 days, oral, clinical chemistry) was 0.7 mg/kg-day, the NOAEL [10] was 15 mg/kg-day and the LC50 ([11]; acute, duration: 14 days, mortality) was greater than 1000 mg/kg. The NOEC ([11]; chronic/long-term) was 9.92 mg/kg and the LR50 [12] was 25.7 g/ha.
